Consider one compound from patent publication US20090222938A1, “Therapeutic Target Molecules For The Development of Novel Medicaments for Degenerative Diseases” (Neuroprofile GMBH, priority 2006, published 2009).

Common to all, as to assay type: cell-based
For experiment [1], the system named is IDI1 protein in NT2-N neurons. The experiment in a line: IDI1 protein quantity by two dimensional polyacrylamid gel electrophoresis and mass spectrometric identification. As to conditions: 15 day treatment.
Description: The increase of the IDI1 protein (IDI1=Isopentenyl-diphosphate delta isomerase 1; =Isopentenyl diphosphate dimethylallyl diphosphate isomerase 1) was detected with a two dimensional polyacrylamid gel electrophoresis after treatment of NT2-N neurons with haloperidol (as described in example 1) and subsequent mass spectrometric identification of the protein spot.
Experiment [2] relates to MAC30-mRNA in NT2-N neuron cells. Briefly: MAC30 mRNA quantitative real-time RT-PCR (SYBR Green 1) after stressor treatment. In general terms: In qPCR the cycle at which signal appears reflects the starting amount.
Description: The MAC30-mRNA increase may be quantified by a quantitative real-time RT-PCR analysis (qRTRTPCR) with fluorescence labelling by SYBR Green 1.
Experiment [3] concerns BRI3-mRNA in NT2-N neurons. Briefly: BRI3 mRNA quantitative real-time RT-PCR after stressor treatment.
Description: This increase may be quantified by means of a quantitative real-time RT-PCR analysis (qRTRTPCR) with fluorescence labelling by SYBR Green 1.
The test system of experiment [4] is NPC2-mRNA in NT2-N neurons. The experiment in a line: NPC2 mRNA quantitative real-time RT-PCR after stressor treatment.
The subject of experiment [5] is SCD-mRNA in NT2-N neurons. Briefly: SCD mRNA quantitative real-time RT-PCR after stressor treatment. As to conditions: 15 day treatment.
In experiment [6] the test system is CUEDC1-mRNA in NT2-N neurons. The experiment in a line: CUEDC1 mRNA quantitative real-time RT-PCR after stressor treatment. As to conditions: 15 days of chronic oxidative stress.
Description: This increase was further quantified by means of a quantitative real time RT-PCR analysis (qRTRTPCR) with fluorescence labelling by SYBR-Green 1. […] The PCR primer pair CUEDC1-For1 (5′-[sequence]-3′) (SEQ ID NO: 122) and CUEDC1-Rev2 (5′-[sequence]-3′) (SEQ ID NO: 123) is suitable for the analysis of the CUEDC1 mRNA by means of qRTRTPCR.
For experiment [7], the system named is G1P3-mRNA in NT2-N neurons. Briefly: G1P3 mRNA quantitative real-time RT-PCR after stressor treatment.
Description: The increase was quantified by means of a quantitative real-time RT-PCR analysis (qRTRTPCR) with fluorescence labeling by SYBR Green 1. […] The PCR primer pair G1P3-For1 (5′-[sequence]-3′) (SEQ ID NO: 118) and GIP3-Rev2 (5′-[sequence]-3′) (SEQ ID NO: 119) is suitable for the analysis of the G1P3 mRNA by means of qRTRTPCR.
For another experiment, the system named is NT2-N neuron cells. The experiment in a line: Live/Dead-Viability/Cytotoxicity Assay, survival of neurons under chronic sublethal oxidative stressor. The settings on record: stressor 1.0-25 μM, serum-free; more than 3 days after the time point of sampling. An excerpt: The increase of MAC30-mRNA in NT2-N neuron cells (Andrews P. W., Dev. Biol., 103, pp 285-293, 1984; Pleasure S. J., Page C., Lee V. M.-Y., J. Neurosci., 12, pp 1802-1815, 1992) has been detected in microarray analyses using fluorescence-labelled cDNA after treating the cells under serum-free conditions with chronic sublethal concentrations of the oxidative stressor haloperidol (Sigma; catalogue No. H-1512). Appropriate conditions for an optimal survival rate of the cells were obtained by means of the Live/Dead-Viability/Cytotoxicity Assay (Molecular Probes) according to the manual of the manufacturer. […] 2′,7′-dichlorodihydrofluorescein-diacetate (Sigma, catalogue No. D6883) was used for determining total cell quantity of ROS. […] Subsequently, the cells were homogenized by sonication, centrifugated (20 minutes, 4° C., 20.000×g), and the fluorescence of the supernatant was measured. […] The relative increase of ROS was calculated in relation to the control. Further, ROS was determined by means of dihydroethidium (DHE; Sigma catalogue No. D7008). 5 μM DHE was added into an aliquot of the scraped cells, incubated for 1 hour at 37° C., processed analogous to the DCFDA procedure, and the fluorescence of the supernatant was determined. The protein adjusted alteration of mitochondrial ROS was calculated in relation to the untreated control. […]

In experiment [8] the test system is LOC222171-mRNA in NT2-N neurons. Briefly: LOC222171 mRNA quantitative real-time RT-PCR after stressor treatment. As to conditions: 15 days of treatment.
Description: This increase was quantified by means of a quantitative real time RT-PCR analysis (qRTRTPCR) featuring fluorescence labelling by SYBR-Green 1. […] The PCR primer pair LOC222171-For1 (5′-[sequence]-3′) (SEQ ID NO: 120) and LOC222171-Rev2 (5′-[sequence]-3′) (SEQ ID NO: 121) is suitable for the analysis of the LOC222171 mRNA by means of qRTRTPCR.
Where [9] appears, read: longer treatment, 'may achieve up to ... or more'.

Each structure is given as a SMILES string. Where only a bound is given, the exact number is not on record here.

Take `O=C(CCCN1CCC(O)(c2ccc(Cl)cc2)CC1)c1ccc(F)cc1` [haloperidol]: the IDI1-protein quantity increase in experiment [1] is ≥ 30%. Further, the MAC30-mRNA increase result in [2] (8-day treatment, 1.0-25 μM) is recorded as “at least 50%”; in [2] (setting [9]), ≥ 200%. Moreover, the BRI3-mRNA increase in [3] (8-day treatment) is listed as ≥ 40%; in experiment [3] (3 days after treatment), “increase can be detected”; in [3] (setting [9]) it was ≥ 200%. In addition, the NPC2-mRNA increase in experiment [4] (15 days of chronic sublethal oxidative stress) is ≥ 50%. In [4] (after 3 days), the “NPC2-mRNA increase in comparison to untreated neurons” value is given as “significant increase”. Besides, the “SCD-mRNA increase in comparison to untreated neurons” value in experiment [5] was ≥ 50%. Besides, in experiment [6], the CUEDC1-mRNA increase result is “more than 30%”. The results for the G1P3-mRNA increase in [7] (8-day treatment), in experiment [7] (after 3 days) and in experiment [7] (setting [9]) were ≥ 50%, “marked increase” and ≥ 400%, respectively. Besides, the neurons alive result with NT2-N neuron cells is recorded as “More than 75%”. The LOC222171-mRNA increase in experiment [8] is given as ≥ 50%.
